Several values for one entry are separate records, joined by “and”; a condition that tells them apart may be missing. Equal values may be shown once. Entries after “also recorded” stand apart in the source; their conditions may differ.

We go through one molecule from paper PMC2931804 (Clinical cancer research : an official journal of the …, 2010).

The nature of data set [1]: FU plasma pharmacokinetics. It is filed as in vivo, human. To be noted: at the MTD.
Data set [2] is described as follows: Vorinostat serum pharmacokinetics. Type of data set: in vivo, human.
In data set [3] the test system is thymidylate synthase. Put plainly: Tumor thymidylate synthase expression by RT-PCR in liver metastasis biopsies. Type of data set: in vivo, human. The conditions noted are these: posttreatment biopsies at the MTD levels.
For data set [4], the system named is dihydropyrimidine dehydrogenase (DPD). Put plainly: DPD activity assay in peripheral blood mononuclear cells. Type of data set: in vivo, human.
The test system of data set [5] is thymidylate synthase. To be noted: in vitro and in vivo models, quantitative-PCR analysis; cited from earlier work.
The conditions of data set [6]: 300 mg orally twice daily × 1 week with FOLFOX; cited from earlier work.
Setting [7] is: 600 mg orally twice daily, individual patients, cycle 2.
[8] abbreviates: 1,700 mg orally once daily, individual patients, cycle 2.

On to `O=C(CCCCCCC(=O)Nc1ccccc1)NO` [vorinostat, suberoylanilide hydroxamic acid], for which the “Pharmacokinetic interactions between vorinostat and FU” value in data set [1] is “No pharmacokinetic interactions”. Besides, the “AUC0–8” value in data set [2] (setting [7]) was 7.8 µmol·h/L; in data set [2] (setting [8]), 35.1 µmol·h/L and 2.6 µmol·h/L and 26 µmol·h/L. The Cmax in data set [2] (setting [7]) turned out to be 4.99 µM; in data set [2] (600 mg orally twice daily, mean of 3 patients (SD 1.51)) it was 3.46 µM; in data set [2] (setting [8]) it was 6.4 µM; in data set [2] (1,700 mg orally once daily, mean of 3 patients (SD 3.09)) it was 4.49 µM. The Tmax in data set [2] (setting [7]) was 2 h and 4 h; in data set [2] (setting [8]), 1 h. In data set [2] (human, oral, half-life, general statement in discussion), the half-life is approximately 120 min. The “Impact of vorinostat on intratumoral thymidylate synthase expression” value in data set [3] is “No definitive impact; also recorded: no clear signs of thymidylate synthase downregulation”. In addition, the “Mean DPD level” value stood at 0.142 nmol/min/mg protein in data set [4] (once-daily MTD arm, four patients, day 2 of cycle 1, baseline 0.189); 0.138 nmol/min/mg protein in data set [4] (once-daily MTD arm, four patients, day 3 of cycle 1, baseline 0.189); 0.126 nmol/min/mg protein in data set [4] (once-daily MTD arm, four patients, day 7 of cycle 1, baseline 0.189); 0.199 nmol/min/mg protein in data set [4] (twice-daily MTD arm, three patients, day 2 of cycle 1, baseline 0.253); 0.138 nmol/min/mg protein in data set [4] (twice-daily MTD arm, three patients, day 3 of cycle 1, baseline 0.253); 0.198 nmol/min/mg protein in data set [4] (twice-daily MTD arm, three patients, day 7 of cycle 1, baseline 0.253). The “Differences in DPD levels over time” value in data set [4] (within once-daily or twice-daily cohorts, one way ANOVA (P > 0.05)) is recorded as “not statistically significant”. In data set [5], the “Downregulation of thymidylate synthase expression” value is given as not above 100 fold. The “maximum vorinostat serum concentrations” value in data set [6] is given as less than 1.5 µmol/L.
